# Reference: US20220030867A1 (priority 2018, published 2022)
# What was measured:
# Fusarium culmorum = test: whole plant or invertebrate; assay type: in vivo, Fusarium culmorum on wheat spikelets cv. Monsun; details: in Triticum aestivum, read-out: control of Fusarium culmorum
SMILES,pest or weed control at 200 ppm (Fusarium culmorum) [%],melting point [°C]
"Cc1nc2c(F)cccc2cc1NC(=O)[C@](C)(Cc1ccccc1)CC(C)C [Compound F-7, (2S)-2-benzyl-N-(8-fluoro-2-methyl-3-quinolyl)-2,4-dimethyl-pentanamide]",≥ 80,–
"COC(C)(Cc1ccccc1)C(=O)Nc1cc2cccc(F)c2nc1C (stereo not shown) [Compound E-41, N-(8-fluoro-2-methyl-3-quinolyl)-2-methoxy-2-methyl-3-phenyl-propanamide]",≥ 80,–
"CC(C)OC(C)(Cc1ccccc1)C(=O)Nc1cnc2c(F)cccc2c1 (stereo not shown) [Compound E-40, N-(8-fluoro-3-quinolyl)-2-isopropoxy-2-methyl-3-phenyl-propanamide]",≥ 80,–
"C=C(C)CC(C)(Cc1ccccc1)C(=O)Nc1cnc2ccccc2c1 (stereo not shown) [Compound E-64, 2-benzyl-2,4-dimethyl-N-(3-quinolyl)pent-4-enamide]",≥ 80,–
"C=C(C)CC(C)(Cc1cccc(F)c1)C(=O)Nc1cc2cccc(F)c2nc1C (stereo not shown) [Compound E-12, N-(8-fluoro-2-methyl-3-quinolyl)-2-[(3-fluorophenyl)methyl]-2,4-dimethyl-pent-4-enamide]",–,124 to 126
"C=C(C)CC(C)(Cc1cccc(F)c1)C(=O)Nc1cnc2c(F)cccc2c1 (stereo not shown) [Compound E-11, 2-[(3-fluorophenyl)-methyl]-N-(8-fluoro-3-quinolyl)-2,4-dimethyl-pent-4-enamide]",–,125 to 127
"Cc1c(NC(=O)[C@@](C)(Cc2ccccc2)CC(F)(F)F)cnc2c(F)cccc12 [Compound F-14, (2S)-2-benzyl-4,4,4-trifluoro-N-(8-fluoro-4-methyl-3-quinolyl)-2-methyl-butanamide]",≥ 80,–
"CCCC(C)(Cc1ccccc1)C(=O)Nc1cnc2c(F)cccc2c1 (stereo not shown) [Compound E-77, 2-benzyl-N-(8-fluoro-3-quinolyl)-2-methyl-pentanamide]",≥ 80,–
"C/C=C(\C)CC(C)(Cc1ccccc1)C(=O)Nc1cnc2c(F)cccc2c1 (stereo not shown) [Compound E-32, (E)-2-benzyl-N-(8-fluoro-3-quinolyl)-2,4-dimethyl-hex-4-enamide]",≥ 80,–
"CC(Cc1ccccc1)(CC(F)(F)Cl)C(=O)Nc1cnc2c(F)cccc2c1 (stereo not shown) [Compound E-56, 2-benzyl-4-chloro-4,4-difluoro-N-(8-fluoro-3-quinolyl)-2-methyl-butanamide]",≥ 80,–
"Cc1c(NC(=O)C(C)(Cc2ccccc2)CC(C)C)cnc2c(Cl)cccc12 (stereo not shown) [Compound E-14, 2-benzyl-N-(8-chloro-4-methyl-3-quinolyl)-2,4-dimethyl-pentanamide]",–,124 to 126
"CC(C)CC(Cc1ccccc1)C(=O)Nc1cnc2c(F)cccc2c1 (stereo not shown) [Compound E-35, 2-benzyl-N-(8-fluoro-3-quinolyl)-4-methyl-pentanamide]",≥ 80,–
"Cc1nc2c(F)cccc2cc1NC(=O)C(C)(Cc1ccccc1)OC(C)C (stereo not shown) [Compound E-39, N-(8-fluoro-2-methyl-3-quinolyl)-2-isopropoxy-2-methyl-3-phenyl-propanamide]",≥ 80,–
"Cc1nc2c(F)cccc2cc1NC(=O)C(C)(Cc1ccccc1)CC(F)(F)F (stereo not shown) [Compound E-47, 2-benzyl-4,4,4-trifluoro-N-(8-fluoro-2-methyl-3-quinolyl)-2-methyl-butanamide]",≥ 80,–
"Cc1nc2c(F)cccc2cc1NC(=O)[C@@](C)(Cc1ccccc1)CC(C)C [Compound F-8, (2R)-2-benzyl-N-(8-fluoro-2-methyl-3-quinolyl)-2,4-dimethyl-pentanamide]",≥ 80,–
"CC(C)CC(C)(Cc1ccccc1)C(=O)Nc1cnc2c(Cl)cccc2c1 (stereo not shown) [Compound E-9, 2-benzyl-N-(8-chloro-3-quinolyl)-2,4-dimethyl-pentanamide]",–,163 to 165

SMILES,pest or weed control at 200 ppm (Fusarium culmorum) [%],melting point [°C]
"CN(C(=O)C(C)(Cc1ccccc1)CC(F)(F)F)c1cnc2c(F)cccc2c1 (stereo not shown) [Compound E-42, 2-benzyl-4,4,4-trifluoro-N-(8-fluoro-3-quinolyl)-N,2-dimethyl-butanamide]",–,137 to 139
"CC(Cc1ccccc1)(CC(F)(F)F)C(=O)Nc1cnc2cc(F)ccc2c1 (stereo not shown) [Compound E-52, 2-benzyl-4,4,4-trifluoro-N-(7-fluoro-3-quinolyl)-2-methyl-butanamide]",–,180 to 182
"Cc1c(NC(=O)[C@](C)(Cc2ccccc2)CC(F)(F)F)cnc2c(F)cccc12 [Compound F-13, (2R)-2-benzyl-4,4,4-trifluoro-N-(8-fluoro-4-methyl-3-quinolyl)-2-methyl-butanamide]",≥ 80,–
"C=C(CC)CC(C)(Cc1ccccc1)C(=O)Nc1cnc2c(F)cccc2c1 (stereo not shown) [Compound E-54, 2-benzyl-N-(8-fluoro-3-quinolyl)-2-methyl-4-methylene-hexanamide]",–,118 to 120
"CC(Cc1ccccc1)(CC(F)(F)F)C(=O)Nc1cnc2cccc(F)c2c1 (stereo not shown) [Compound E-49, 2-benzyl-4,4,4-trifluoro-N-(5-fluoro-3-quinolyl)-2-methyl-butanamide]",–,140 to 142
"CC(Cc1ccccc1)(CC(F)(F)F)C(=O)Nc1cnc2ccccc2c1 (stereo not shown) [Compound E-81, 2-benzyl-4,4,4-trifluoro-2-methyl-N-(3-quinolyl)butanamide]",≥ 80,–
"C=C(C)CC(C)(Cc1ccccc1)C(=O)Nc1cc2cccc(F)c2nc1C (stereo not shown) [Compound E-66, 2-benzyl-N-(8-fluoro-2-methyl-3-quinolyl)-2,4-dimethyl-pent-4-enamide]",≥ 80,–
"CC(C=C(F)F)(Cc1ccccc1)C(=O)Nc1cnc2c(F)cccc2c1 (stereo not shown) [Compound E-57, 2-benzyl-4,4-difluoro-N-(8-fluoro-3-quinolyl)-2-methyl-but-3-enamide]",≥ 80,–
"COCN(C(=O)C(C)(Cc1ccccc1)CC(F)(F)F)c1cnc2c(F)cccc2c1 (stereo not shown) [Compound E-33, 2-benzyl-4,4,4-trifluoro-N-(8-fluoro-3-quinolyl)-N-(methoxymethyl)-2-methyl-butanamide]",–,108 to 110
"CC1(CC(C)(Cc2ccccc2)C(=O)Nc2cnc3c(F)cccc3c2)CC1 (stereo not shown) [Compound E-70, 2-benzyl-N-(8-fluoro-3-quinolyl)-2-methyl-3-(1-methylcyclopropyl)propanamide]",–,149 to 151
"Cc1c(NC(=O)C(C)(Cc2ccccc2)CC(F)(F)F)cnc2c(Cl)cccc12 (stereo not shown) [Compound E-15, 2-benzyl-N-(8-chloro-4-methyl-3-quinolyl)-4,4,4-trifluoro-2-methyl-butanamide]",–,73 to 75
"C=C(C)CC(C)(Cc1ccccc1)C(=O)Nc1cnc2c(F)cccc2c1C (stereo not shown) [Compound E-65, 2-benzyl-N-(8-fluoro-4-methyl-3-quinolyl)-2,4-dimethyl-pent-4-enamide]",–,105 to 109
"CC(C)CC(C#N)(Cc1ccccc1)C(=O)Nc1cnc2c(F)cccc2c1 (stereo not shown) [Compound E-83, 2-benzyl-2-cyano-N-(8-fluoro-3-quinolyl)-4-methyl-pentanamide]",≥ 80,–
"CC(C)(Cc1ccccc1)C(=O)Nc1cnc2c(F)cccc2c1 [Compound E-69, N-(8-fluoro-3-quinolyl)-2,2-dimethyl-3-phenyl-propanamide]",≥ 80,–
"CC(Cc1ccccc1)(CC(F)F)C(=O)Nc1cnc2c(F)cccc2c1 (stereo not shown) [Compound E-55, 2-benzyl-4,4-difluoro-N-(8-fluoro-3-quinolyl)-2-methyl-butanamide]",≥ 80,–
